# Data taken from US20190209581A1, “DOSAGE REGIMEN FOR TREATMENT OF SOLID TUMORS” (Eli Lilly and Company, priority 2016, published 2019).
# Key:
# N1ICD (cleaved Notch1) = assay: N1ICD analysis (ELISA) in xenograft tumors; type: in vivo, human; settings: for % N1ICD Inhibition: 10 mg/kg (Q2Dx7), 11-days OFF
# Procedure: To evaluate in vivo efficacy and effect of 4,4,4-Trifluoro-N-[(1S)-2-[[(7S)-5-(2-hydroxyethyl)-6-oxo-7H-pyrido[2,3-d][3]benzazepin-7-yl]amino]-1-methyl-2-oxo-ethyl]butanamide on inhibition of Notch processing pharmacodynamics (PD), several cell lines- and patient-derived xenograft models are used. A2780 is a human ovarian cell line (Sigma-Aldrich, No. 93112519); SW480 is a human colorectal cell line (ATCC No. CCL-228); HCT 116 is a human colorectal cell line (ATCC No. CCL-247); U-87 MG is a human glioblastoma cell line (ATCC No. HTB-14); A375 is a human malignant melanoma cell line (ATCC No. CRL-1619); K-562 is a human chronic myelogenous leukemia (CML) cell line characterized by the presence of a fusion transcript comprised of the Bcr and Abl1 genes (ATCC No. CCL-243); Jurkat; HEL 92.1.7 is a human erythroleukemia cell line (ATCC No. TIB-180). Each of the cell lines are obtained from the American Type Culture Collection (ATCC) at the ATCC number stated, except the A2780 cell line which is obtained from Sigma-Aldrich at the stated catalog number. The cells are grown in their respective, recommended culture media at 37° C. in 5% CO2 with humidity in the atmosphere. A2780 (2×10^6), SW480 (6×10^6), HCT 116 (6×10^6), U-87 MG (6×10^6), and A-375 (10×10^6) cells in a 1:1 matrigel mix (0.2 mL volume) are implanted by subcutaneous injection in the hind leg of 6-8 weeks of age athymic nude female mice (Harlan Laboratories). K-562 (6×10^6) cells in a 1:1 matrigel mix (0.2 mL volume) are implanted by subcutaneous injection in the hind leg of 6-8 weeks of age CD1 nμ/nμ female mice (Charles River Laboratories). HEL 92.1.7 (7×10^6) in a 1:1 matrigel mix (0.2 mL volume) are implanted by subcutaneous injection in the hind leg of 6-8 weeks of age CB17 severely combined immune deficient female mice (Taconic Farms). Patient-derived tumors are minced into 1-2 mm pieces and mixed with matrigel (1:1) in 0.2 ml volume and implanted by subcutaneous injection in the hind leg of 6-8 weeks of age athymic nude female mice (Harlan Laboratories). Patients-derived tumor models include: human colon carcinoma (EL2144), human triple negative invasive ductal breast carcinoma (EL1997), human colon carcinoma (EL1989, EL 1986), and human glioblastoma (EL 2056) with samples obtained after patient consent and hospital approval from IU Health, Methodist Hospital, Indianapolis, Ind., USA 46206. A total of 7 to 10 mice are used for each group. Just before implantation for A2780, SW480, HEL 92.1.7, A-375, K-562, and patient-derived tumor models, animals are irradiated (450 Total Body Irradiation). Mice are fed ad libitum on normal chow. Treatment is initiated with oral administration (gavage) of compound or vehicle (1% Na-CMC in 0.25% Tween®-80) in 0.2 mL volume when tumor size reached to 150±50 mm^3. At designated time points following treatment, animals are sacrificed by CO2 asphyxiation and cervical dislocation. Tumors are removed and used for PD response analysis. Tumor growth and body weight are monitored over time to evaluate efficacy and signs of toxicity. Bidimensional measurements of tumors are performed twice a week and tumor volumes are calculated based on the following formula: (Tumor Volume)=[(L)×(W2)×(Π/6)] where L is mid-axis length and W is mid-axis width. Tumor volume data are transformed to a log scale to equalize variance across time and treatment groups. The log volume data are analyzed with a two-way repeated measures analysis of variance by time and treatment using the MIXED™ procedures in SAS™ software (version 8.2). The correlation model for the repeated measures is spatial power. Treated groups are compared to the control group at each time point. The MIXED™ procedure is also used separately for each treatment group to calculate adjusted means and standard errors at each time point. Both analyses account for the autocorrelation within each animal and the loss of data that occurs when animals with large tumors are removed from the study early. […]
# [1] = test system: human colon carcinoma (EL 1986); assay: Tumor growth inhibition, patient-derived tumor model EL1986; type: in vivo; settings: EL1986 in mice, oral 8 mg/kg, (Mon, Wed, Fri)x5; p <0.0001
# Procedure: To evaluate in vivo efficacy and effect of 4,4,4-Trifluoro-N-[(1S)-2-[[(7S)-5-(2-hydroxyethyl)-6-oxo-7H-pyrido[2,3-d][3]benzazepin-7-yl]amino]-1-methyl-2-oxo-ethyl]butanamide on inhibition of Notch processing pharmacodynamics (PD), several cell lines- and patient-derived xenograft models are used. A2780 is a human ovarian cell line (Sigma-Aldrich, No. 93112519); SW480 is a human colorectal cell line (ATCC No. CCL-228); HCT 116 is a human colorectal cell line (ATCC No. CCL-247); U-87 MG is a human glioblastoma cell line (ATCC No. HTB-14); A375 is a human malignant melanoma cell line (ATCC No. CRL-1619); K-562 is a human chronic myelogenous leukemia (CML) cell line characterized by the presence of a fusion transcript comprised of the Bcr and Abl1 genes (ATCC No. CCL-243); Jurkat; HEL 92.1.7 is a human erythroleukemia cell line (ATCC No. TIB-180). […] Tumor growth and body weight are monitored over time to evaluate efficacy and signs of toxicity. Bidimensional measurements of tumors are performed twice a week and tumor volumes are calculated based on the following formula: (Tumor Volume)=[(L)×(W2)×(Π/6)] where L is mid-axis length and W is mid-axis width. […] The log volume data are analyzed with a two-way repeated measures analysis of variance by time and treatment using the MIXED™ procedures in SAS™ software (version 8.2). […]
# [2] = Homo sapiens, A2780, 4 h, A2780 tumors 4 hours after last dose, Q2Dx13, p <0.0001
smiles,measurement,setting,value
"C[C@H](NC(=O)CCC(F)(F)F)C(=O)N[C@@H]1C(=O)N(CCO)c2ncccc2-c2ccccc21 [Compound 1, 4,4,4-trifluoro-N-[(1S)-2-[[(7S)-5-(2-hydroxyethyl)-6-oxo-7H-pyrido[2,3-d][3]benzazepin-7-yl]amino]-1-methyl-2-oxo-ethyl]butanamide]",% N1ICD Inhibition,"N1ICD (cleaved Notch1); EL1989 tumors 4 hours after last dose, 8 mg/kg (Mon, Wed, Fri)x3, p <0.0001",79.2 (<0.0001) %
same,% N1ICD Inhibition,"N1ICD (cleaved Notch1); EL1997 tumors 4 hours after last dose, 8 mg/kg (Mon, Wed, Fri)x4, p <0.0001",67.9 (<0.0001) %
same,inhibition at 8 mg/kg,"N1ICD (cleaved Notch1); Homo sapiens, 4 h, EL1986 tumors 4 hours after last dose, (Mon, Wed, Fri)x5, p <0.0001",84.9%
same,inhibition at 8 mg/kg,"N1ICD (cleaved Notch1); Homo sapiens, 4 h, EL2056 tumors 4 hours after last dose, (Mon, Wed, Fri)x5, p <0.0001",83.5%
same,inhibition at 1.5 mg/kg,"N1ICD (cleaved Notch1); Homo sapiens, A2780, 4 h, A2780 tumors 4 hours after last dose, 1.5 mg/kg, QDx26, p <0.0001",59%
same,inhibition at 3 mg/kg,"N1ICD (cleaved Notch1); Homo sapiens, A2780, 4 h, A2780 tumors 4 hours after last dose, (BID)QDx7 + (BID)Q2Dx7, p 0.0004",50.7%
same,inhibition at 3 mg/kg,N1ICD (cleaved Notch1); [2],58.6%
same,inhibition at 3 mg/kg,"N1ICD (cleaved Notch1); Homo sapiens, A2780, 4 h, A2780 tumors 4 hours after last dose, QDx21, p <0.0001",62.8%
same,inhibition at 6 mg/kg,"N1ICD (cleaved Notch1); Homo sapiens, A2780, 4 h, A2780 tumors 4 hours after last dose, 6 mg/kg, Q2Dx13, p <0.0001",60.7%
same,inhibition at 7 mg/kg,"N1ICD (cleaved Notch1); Homo sapiens, A2780, 4 h, A2780 tumors 4 hours after last dose, 7 mg/kg, Q2Dx13, p <0.0001",65.9%
same,inhibition at 8 mg/kg,N1ICD (cleaved Notch1); [2],71.7%
same,inhibition at 10 mg/kg,"N1ICD (cleaved Notch1); Homo sapiens, A2780, 4 h, A2780 tumors 4 hours after last dose, Q2Dx11, p <0.0001",68.5%
same,inhibition at 10 mg/kg,N1ICD (cleaved Notch1); [2],74.8%
same,inhibition at 10 mg/kg,"N1ICD (cleaved Notch1); Homo sapiens, A2780, 4 h, A2780 tumors 4 hours after last dose, Q3Dx8, p <0.0001",55.3%
same,inhibition at 8 mg/kg,"N1ICD (cleaved Notch1); Homo sapiens, A-375, 4 h, A-375 tumors 4 hours after last dose, (Mon, Wed, Fri)x4, p <0.0001",77.5%
same,inhibition at 8 mg/kg,"N1ICD (cleaved Notch1); Homo sapiens, HCT-116, 4 h, HCT 116 tumors 4 hours after last dose, (Mon, Wed, Fri)x4, p =0.0005",73%
same,inhibition at 8 mg/kg,"N1ICD (cleaved Notch1); Homo sapiens, HEL 92.1.7, 4 h, HEL 92.1.7 tumors 4 hours after last dose, Q2dx14, p <0.0001",56.7%
same,inhibition at 8 mg/kg,"N1ICD (cleaved Notch1); Homo sapiens, K562, 4 h, K-562 tumors 4 hours after last dose, (Mon, Wed, Fri)x4, p <0.0001",47.6%
same,inhibition at 8 mg/kg,"N1ICD (cleaved Notch1); Homo sapiens, SW480, 4 h, SW480 tumors 4 hours after last dose, (Mon, Wed, Fri)x5, p =0.0002",72.5%
same,inhibition at 8 mg/kg,"N1ICD (cleaved Notch1); Homo sapiens, U-87 MG, 4 h, U-87 MG tumors 4 hours after last dose, (Mon, Wed, Fri)x4, p <0.0001",87.8%
same,% TGI,[1],62.00 (<0.0001) %
